Test results as given in US20260229370A1, “[…] BENEFIT/RISK ASSESSMENT METHOD SUITABLE FOR THE PHYSIOLOGICAL ACTIVITY OF NATURAL MATRICES-BASED […] OR BENEFICIAL PRODUCTS WITH RESPECT TO THAT OF OTHER PRODUCTS WITH PHARMACOLOGICAL OR NUTRACEUTICAL ACTIVITY BASED ON […] MOLECULES” (Bios-Therapy, Physiological Systems for Health S.p.A., priority 2025, published 2026).

Experiments:
[1] = In vivo observation of behavioural parameters (risk, side effects) in mouse model; set-up: species or system mice
Source text: (§1) The risk (intended as side effects) was estimated through the observation of behavioural parameters (impacting the behaviour itself, the locomotor system, muscle strength and nervous reflexes) and through the potential weight loss of the animal.
(§2) Data obtained by animal testing, considered in the context of the risk, are behavioural parameters and body weight loss at the end of experimentation.
The behavioural parameters monitored are listed below: • 1. Loss of Spontaneous activity • 2. Loss of Cleaning • 3. Loss of Curiosity • 4. Loss of Reactivity • 5. Loss of Straightening reflex • 6. Loss of Physical strength • 7. Impairment of Palpebral opening • 8. Palpebral reflex • 9. Tremors • 10. Pallor • 11. Stereotypies • 12. Passivity
The values of the parameters 1-8 are normalized as: “Not treated animal value” (always equal to 0)+“Treated animal value”.
The values of the parameters 9-12 are normalized as: “Not treated animal value”−“Treated animal value”.
(§3) The benefit (intended as therapeutic activity) was instead evaluated by taking into consideration the reduction in size of the tumour mass compared to the untreated tumour. For this purpose, immunocompromised mice bearing xenografted FaDu head and neck squamous carcinoma cells were included in the study once tumours reached a volume of 100 mm^3. Mice received daily intratumoral injections of EpigenAU/11 and intraperitoneal cisplatin on alternating days.

[2] = system: xenografted FaDu head and neck squamous carcinoma cells; test: In vivo tumour mass size in mice bearing xenografted FaDu cells (benefit); settings: daily intratumoral EpigenAU/11, intraperitoneal cisplatin on alternating days; treated day 27; vehicle 1.38
Protocol: Data obtained by animal testing, considered in the context of benefit, is the tumour mass size reached at the end of in vivo test for each treatment.
Data were calculated as “Reduction in the size of tumour mass” by the formula:
1−[“Tumour mass size collected from treated animals (day of observation: 27)/Tumour mass size collected from untreated animals (day of observation: 19)]
as §3

[3] = In vivo body weight (potential weight loss) at the end of experimentation; set-up: species or system mice; settings: mouse
Protocol: as §1, §2
The potential weight loss of the treated animals was also assessed.” Data were processed using the formula: […]
as §3

N.N.[Cl][Pt][Cl] [Cisplatin]
Cleaning (Behaviour), Mean [1]: 2.90
Curiosity (Behaviour), Mean [1]: 2.60
Pallor (Nervous system), Mean [1]: 2.00
Palpebral opening (Nervous system), Mean [1]: 2.00
Palpebral reflex (Nervous system), Mean [1]: 2.80
Passivity (Behaviour), Mean [1]: 1.60
Physical strenght (Muscle), Mean [1]: 2.70
Reactivity (Behaviour), Mean [1]: 2.20
Spontaneous activity (Behaviour), Mean [1]: 2.50
Stereolipies (Locomotor system), Mean [1]: 0.00
Straightening reflex (Locomotor system), Mean [1]: 2.60
Tremors (Nervous system), Mean [1]: 0.80
Size of tumor masses (Tumor viability), Mean [2]: 0.50
Body weight (Nutritional and metabolic system), Mean [3]: 29.12
